According to patent US10273333B2, “Substituted polyesters by thiol-ene modification: rapid diversification for therapeutic protein stabilization” (THE REGENTS OF THE UNIVERSITY OF CALIFORNIA, priority 2014, dated 2019):

How the values were obtained:
lysozyme = lysozyme (Gallus gallus, UniProt P00698); test: Lysozyme stabilization against heat stress (90° C., 20 minutes), EnzChek lysozyme activity assay; type: biochemical; settings: heated 90° C. for 20 minutes; 5 to 25 wt eq. excipient; FIG. 12a
Protocol: The ability of these biodegradable trehalose polymers to stabilize proteins was confirmed through heat and lyophilization stress assays. […] Therefore, these proteins were also selected to test the biodegradable trehalose polymers. First, lysozyme was stressed by heating to 90° C. for 20 minutes.
[…] Samples were further diluted to a concentration of 0.021 mg/mL (1 kU/mL) and […] aliquots were prepared in 0.5 mL LoBind Eppendorf tubes. Each aliquot was heated to 90° C. for 20 minutes at 500 rpm, then cooled to 4° C. and centrifuged for 1 minute at 10,000 rpm. Samples were stored at 4° C. until activity was evaluated all together using the EnzChek® lysozyme activity assay.
Aliquots containing 20 μL of lysozyme-glycopolymer solution were diluted to 100 μL with PBS pH 7.4. 50 μL of the resulting solution was removed and incubated with 50 μL of Micrococcus luteus labeled with FITC (1 mg/mL) at 37° C. for 30 minutes in a 96-well plate. The resulting fluorescence was measured (abs 480 nm/em 530 nm) and quantified relative to a known concentration curve. Statistics to determine significance were calculated using the Students t test; % confidence as +/−=t(standard deviation)/(number of trials)½ with p<1−% confidence/100.

[1] = Differential scanning calorimetry (DSC): melting and crystallization enthalpy of water; type: physicochemical; settings: 1 mol % of the stabilizing unit; for ΔHc (change in crystallization enthalpy of water) / ΔHm (change in melting enthalpy of water): relative to water; for Hc (crystallization enthalpy of water) / Hm (melting enthalpy of water): second heat/cool run, in J/g (unit assumed)
Protocol: Solutions of trehalose, betaine, pCL-trehalose80, and pCL-zwitterion80 were made at 1 mol % of the stabilizing unit (trehalose or betaine) and analyzed by DSC (TA Instruments Q2000). Runs were carried out using two heat/cool cycles from −40° C. to 40° C. at […] and values were taken from the second run.

β-galactosidase (β-Gal) = settings: three 12-hour desiccation (lyophilization) cycles; excipient; FIG. 12b
Protocol: The stabilization of β-Gal against lyophilization stress was also measured. […] The activity of β-Gal was determined by reaction with ortho-nitrophenol galactose (ONPG). When incubated with β-Gal, release of the yellow-colored o-nitrophenol from ONPG can be monitored at 405 nm.
The activity of β-Gal was determined by reaction with ortho-nitrophenol galactose (ONPG). When incubated with β-Gal, release of the yellow-colored o-nitrophenol from ONPG can be monitored at 405 nm.
Lyophilization studies with β-galactosidase were carried out as previously described; 8-Gal was subjected to three 12 hour lyophliization cycles before dilution. Activity was assayed by monitoring the hydrolysis of o-nitrophenol galactose (ONPG) at 405 nm.

[2] = molecular target: T1, granulocyte colony-stimulating factor (G-CSF) (Homo sapiens, UniProt P09919); test: G-CSF stabilization studies; G-CSF bioactivity by NFS-60 cell proliferation (CellTiter-Blue); type: cell-based; settings: 60° C. for 30 minutes; small molecules at the concentration of stabilizing units in pCL-zwitterion80, Tween 80 and polymers at 100 weight equivalents; FIG. 74
T1 construct: host or cells: E. coli
T1 sequence (P09919 31-204 isoform P09919-2 limits assumed): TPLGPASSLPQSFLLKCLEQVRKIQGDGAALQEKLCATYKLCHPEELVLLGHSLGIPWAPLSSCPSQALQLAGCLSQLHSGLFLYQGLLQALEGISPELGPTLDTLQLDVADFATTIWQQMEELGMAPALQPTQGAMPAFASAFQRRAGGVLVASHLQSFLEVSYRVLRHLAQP
Protocol: G-CSF Stabilization Studies: G-CSF samples (25 μL) were prepared in 10 mM acetate buffer, pH 4.0 at 1 μg/mL with 100 equivalents polymer additive by weight. Samples were stored at 4° C. for 90 minutes or 60° C. for 30 minutes and then were diluted with cold RPMI-1640 medium+10% FBS (735 μL). The samples were then further diluted with RPMI-1640+10% FBS to a final concentration of 1 ng/mL. G-CSF bioactivity was then assayed in a NFS-60 mouse myelogenous leukemia lymphoblast cell line. NFS-60 cells were cultured in RPMI-1640 medium supplemented with 10% FBS and 2 ng/mL interleukin-3 (IL-3) at 37° C./5% CO2. NFS-60 cells were passaged at least three times before used in proliferation experiments. Prior to treating NFS-60 cells with G-CSF samples, NFS-60 cells were collected and resuspended in RPMI-1640 with 10% FBS (without additional growth factors). Cells were plated in the internal wells of a 96 well plate at a density of 20,000 cells per well in 50 μL of medium. G-CSF solution (50 μL) was then added to provide a final concentration of 0.5 ng/mL and total well volume of 100 μL. Following 48 h incubation at 37° C./5% CO2, CellTiter-Blue viability assay was performed to measure cell proliferation. All experimental groups were normalized to the control of the control of media alone without G-CSF addition. All p values were calculated using the independent Student's t test assuming unequal variances.
Next the ability of the polymer to protect protein activity against environmental stressors was assessed. The therapeutic protein granulocyte colony-stimulating factor (G-CSF) was selected to compare excipient efficacy due to its clinical importance. […] G-CSF is highly unstable at physiological pH and is therefore stored at pH 4.0; still at this pH the protein readily degrades upon storage or subjection to heat (Krishnan et al., 2002). […] Protein activity was determined by measuring cell proliferation in murine myeloid leukemia NFS-60 cells, which is enhanced in the presence of GCSF, and compared to the proliferation of freshly diluted protein (Shirafuji et al., 1989).

Chain of lysozyme (P00698 19-147): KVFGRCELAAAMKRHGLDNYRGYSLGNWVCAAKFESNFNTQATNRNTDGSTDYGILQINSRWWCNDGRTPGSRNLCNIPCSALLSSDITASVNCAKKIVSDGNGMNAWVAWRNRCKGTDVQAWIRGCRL

| G-CSF activity / cell proliferation, comparison with small-molecule excipients [2] | Structure (SMILES) | lysozyme activity retained (of native activity) (lysozyme) | ΔHc (change in crystallization enthalpy of water) [1] | ΔHm (change in melting enthalpy of water) [1] | Hc (crystallization enthalpy of water) [1] | Hm (melting enthalpy of water) [1] | β-Gal activity maintained (of native activity) (β-galactosidase (β-Gal)) |
| --- | --- | --- | --- | --- | --- | --- | --- |
|  | OC[C@H]1O[C@H](O[C@H]2O[C@H](CO)[C@@H](O)[C@H](O)[C@H]2O)[C@H](O)[C@@H](O)[C@@H]1O [trehalose] | not significantly different from the negative control | 22.3 | −47.4 | −229.9 | 249.1 | up to 67% |
| little stabilizing effect | OC[C@H]1O[C@@](CO)(O[C@H]2O[C@H](CO)[C@@H](O)[C@H](O)[C@H]2O)[C@@H](O)[C@@H]1O [sucrose] |  |  |  |  |  |  |
| maintained high protein activity | CCCCCCCC/C=C\CCCCCCCC(=O)OCCOCC(OCCO)C1OCC(OCCO)C1OCCO (stereo not shown) [Tween 80, polysorbate 80] |  |  |  |  |  |  |
| little stabilizing effect | C[N+](C)(C)CC(=O)O [betaine] |  | 73.2 | −98.4 | −179 | 198.1 |  |
